Test results: patent US20220409620A1, “REDUCING IMMUNOGENICITY TO PEGLOTICASE” (Horizon Pharma Rheumatology LLC, priority 2016, published 2022)

Test system: adult patients with uncontrolled gout
Assay: Serum uric acid (sUA) levels and sUA responder rate, open-label study of pegloticase with MTX (MIRROR OL)
Format: in vivo, human
Conditions: Month 6 sUA Responders
Experimental: The primary objective is to estimate the response rate during Month 6 (Weeks 20, 22, and 24), as measured by the sustained normalization of serum uric acid (SUA) to <6 mg/dL for at least 80% of the time during Month 6 in subjects receiving KXX with MTX.
The primary efficacy outcome endpoint is the sustained normalization of SUA to <6 mg/dL for at least 80% of the time during month 6 (weeks 20, 22, and 24) in subjects receiving KXX with MTX. […] Participants who achieve this endpoint were classified as “responders.” Serum uric acid (SUA) responders may also be defined as participants achieving and maintaining SUA <6 mg/dL for at least 80% of the time during Month 6 (Weeks 20, 22, and 24).
Blood samples may be collected prior to each pegloticase infusion for measurement of SUA levels using the Beckman Coulter AU System Uric Acid procedure. Participants were declared “non-responders” if there were SUA measures >6 mg/dL at 2 consecutive study visits beginning with the week 2 visit. […] This assumption and subsequent discontinuation of pegloticase was consistent with the protocol of large phase III randomized controlled trials and the product label. A formal stopping rule was 2 occasions of SUA levels of greater than 6 mg/dL.
Clinical Chemistry—Blood samples were collected prior to each pegloticase infusion for measurement of SUA levels (primary efficacy parameter) using the Beckman Coulter AU System Uric Acid procedure. In this procedure uric acid is converted to hydrogen peroxide. Hydrogen peroxide reacts with reagent to produce a chromophore which is read bichromatically at 660/800 nm. The amount of dye formed is proportional to the uric acid concentration in the sample.
Serum samples for measurement of SUA levels were collected at the Screening Visit, the Week −4 Visit (prior to the first dose of MTX), and the Week −2 Visit during the MTX Run-in Period; within 48 hours prior to each pegloticase infusion and after the end of each pegloticase infusion prior to discharge from the site during the Pegloticase+IMM Period; at the non-infusion Week 52/End of Study/Early Termination Visits and at the Post Treatment 3 and 6 Month Follow-up Visits. Additional serum samples for SUA levels were collected at optional non-infusion (Frequent Sampling) Visits at Weeks 1 and 7. […] Subjects with SUA level >6 mg/dL at 2 consecutive visits beginning at Week 2 visit discontinued treatment, completed the End of Pegloticase Infusion Visit procedures within 2 weeks and continued the subject visits according to the protocol (without treatment).
Efficacy analyses were performed using the modified intention-to-treat (mITT) population, defined as all enrolled subjects who received ≥1 dose of pegloticase. The proportion of Month 6 responders was summarized, along with a 95% confidence interval for the proportion. The proportion of Month 3 and overall (Months 3 and 6 combined) responders was analyzed similarly.
A subject was declared a non-responder if the subject had SUA level >6 mg/dL at 2 consecutive study visits beginning with the Week 2 Visit. In addition, a subject who withdraws from study treatment for any reason after the first dose of pegloticase in the KXX+MTX Period and prior to Month 6 (for the primary endpoint) or Month 3 (for the secondary endpoint) was considered a non-responder if SUA values were not collected at the planned time points.
Patients were administered oral MTX (15 mg/week) and folate (1 mg/day) 4 weeks prior to the first pegloticase infusion (Day 1) and throughout the pegloticase treatment period. Blood was drawn prior to each infusion to measure sUA level, monitor clinical parameters, and examine for ADA development. All patients followed typical IR prophylaxis protocols (fexofenadine one day before and the morning of each infusion and acetaminophen and IV corticosteroid the morning of each infusion).

## pegloticase
Week 28-Pre-Infusion, n=8
  Serum Uric Acid, Observed, Mean (SD): 0.30 (0.000) mg/dL
  Serum Uric Acid, Observed, Median: 0.30 mg/dL
  sUA <6 mg/dL, n (%): 8 (100%)
Week 30-Pre-Infusion, n=8
  Serum Uric Acid, Change from Baseline, Mean (SD): −9.11 (3.293) mg/dL
  Serum Uric Acid, Change from Baseline, Median: -8.95 mg/dL
  Serum Uric Acid, Observed, Mean (SD): 0.30 (0.000) mg/dL
  Serum Uric Acid, Observed, Median: 0.30 mg/dL
  sUA <6 mg/dL, n (%): 8 (100%)
Week 32-Post-Infusion, n=8
  Serum Uric Acid, Change from Baseline, Mean (SD): −9.11 (3.293) mg/dL
  Serum Uric Acid, Change from Baseline, Median: -8.95 mg/dL
  Serum Uric Acid, Observed, Mean (SD): 0.30 (0.000) mg/dL
  Serum Uric Acid, Observed, Median: 0.30 mg/dL
  sUA <6 mg/dL, n (%): 8 (100%)
Week 32-Pre-Infusion, n=10
  Serum Uric Acid, Change from Baseline, Mean (SD): −8.99 (2.961) mg/dL
  Serum Uric Acid, Change from Baseline, Median: -8.95 mg/dL
  Serum Uric Acid, Observed, Mean (SD): 0.30 (0.000) mg/dL
  Serum Uric Acid, Observed, Median: 0.30 mg/dL
  sUA <6 mg/dL, n (%): 10 (100%)
Week 34-Post-Infusion, n=8
  Serum Uric Acid, Change from Baseline, Mean (SD): −9.11 (3.293) mg/dL
  Serum Uric Acid, Change from Baseline, Median: -8.95 mg/dL
  Serum Uric Acid, Observed, Mean (SD): 0.30 (0.000) mg/dL
  Serum Uric Acid, Observed, Median: 0.30 mg/dL
  sUA <6 mg/dL, n (%): 8 (100%)
Week 34-Pre-Infusion, n=10
  Serum Uric Acid, Change from Baseline, Mean (SD): −8.47 (3.248) mg/dL
  Serum Uric Acid, Change from Baseline, Median: -7.95 mg/dL
  Serum Uric Acid, Observed, Mean (SD): 0.82 (1.046) mg/dL
  Serum Uric Acid, Observed, Median: 0.30 mg/dL
  sUA <6 mg/dL, n (%): 10 (100%)
Week 36-Post-Infusion, n=6
  Serum Uric Acid, Change from Baseline, Mean (SD): −9.38 (3.799) mg/dL
  Serum Uric Acid, Change from Baseline, Median: -9.20 mg/dL
  Serum Uric Acid, Observed, Mean (SD): 0.30 (0.000) mg/dL
  Serum Uric Acid, Observed, Median: 0.30 mg/dL
  sUA <6 mg/dL, n (%): 6 (100%)
Week 36-Pre-Infusion, n=9
  Serum Uric Acid, Change from Baseline, Mean (SD): −7.90 (4.094) mg/dL
  Serum Uric Acid, Change from Baseline, Median: -8.60 mg/dL
  Serum Uric Acid, Observed, Mean (SD): 1.58 (2.425) mg/dL
  Serum Uric Acid, Observed, Median: 0.30 mg/dL
  sUA <6 mg/dL, n (%): 8 ( 88.9%)
Week 38-Pre-Infusion, n=5
  Serum Uric Acid, Change from Baseline, Mean (SD): −8.41 (5.229) mg/dL
  Serum Uric Acid, Change from Baseline, Median: -8.60 mg/dL
  Serum Uric Acid, Observed, Mean (SD): 0.93 (1.583) mg/dL
  Serum Uric Acid, Observed, Median: 0.30 mg/dL
  sUA <6 mg/dL, n (%): 5 (100%)
Week 40-Pre-Infusion, n=3
  Serum Uric Acid, Change from Baseline, Mean (SD): −11.30 (3.686) mg/dL
  Serum Uric Acid, Change from Baseline, Median: -9.80 mg/dL
  Serum Uric Acid, Observed, Mean (SD): 0.30 (0.000) mg/dL
  Serum Uric Acid, Observed, Median: 0.30 mg/dL
  sUA <6 mg/dL, n (%): 3 (100%)
Week 42-Pre-Infusion, n=3
  Serum Uric Acid, Change from Baseline, Mean (SD): −11.30 (3.686) mg/dL
  Serum Uric Acid, Change from Baseline, Median: -9.80 mg/dL
  Serum Uric Acid, Observed, Mean (SD): 0.30 (0.000) mg/dL
  Serum Uric Acid, Observed, Median: 0.30 mg/dL
  sUA <6 mg/dL, n (%): 3 (100%)
Week 44-Pre-Infusion, n=3
  Serum Uric Acid, Change from Baseline, Mean (SD): −10.55 (4.625) mg/dL
  Serum Uric Acid, Change from Baseline, Median: -9.80 mg/dL
  Serum Uric Acid, Observed, Mean (SD): 1.05 (1.305) mg/dL
  Serum Uric Acid, Observed, Median: 0.30 mg/dL
  sUA <6 mg/dL, n (%): 3 (100%)
Week 46-Pre-Infusion, n=2
  Serum Uric Acid, Change from Baseline, Mean (SD): −12.65 (4.031) mg/dL
  Serum Uric Acid, Change from Baseline, Median: -12.65 mg/dL
  Serum Uric Acid, Observed, Mean (SD): 0.30 (0.000) mg/dL
  Serum Uric Acid, Observed, Median: 0.30 mg/dL
  sUA <6 mg/dL, n (%): 2 (100%)
